Values quoted from earlier work, collected in patent US20050004106A1, “Combinations of GABA modulators and anticonvulsants, and atypical antipsychotics” (Pfizer Inc, priority 2003, published 2005).

Assays:
[1] = in vivo

Compound: Cl.O.O=C1Cc2cc(CCN3CCN(c4nsc5ccccc45)CC3)c(Cl)cc2N1 [ziprasidone, 5-[2-[4-(1,2-benzisothiazol-3-yl)piperazin-1-yl]ethyl]-6-chloroindolin-2-one hydrochloride hydrate]
- protein binding: extensive
- half-life [1]: 6 to 7 h
